Measured values from PubChem BioAssay AID2060498 (Molecular Pharmacology Branch, DTP, NCI, 2025).

System: 171881-019-R-J1-PDC tumor spheroids, viability
Assay: Anticancer human tumor 171881-019-R-J1-PDC patient-derived invasive breast carcinoma cell line growth inhibition [GQUAD]
Conditions: spheroids with HUVEC and MSC; for IC50: curve of first compound; for viability, T/C: stronger effect = lower value
Method in brief: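 Tumor cells were grown as complex spheroids with HUVEC endothelial cells and mesenchymal stem cells as stroma. G-quadruplex stabilizers were combined with targeted agents over half-log dilutions from near the clinical Cmax, or from 10 microM.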

[1] = second compound 0.0316 µM, first compound 0.0316 µM
[2] = second compound 0.0316 µM, first compound 0.1 µM
[3] = second compound 0.0316 µM, first compound 0.316 µM
[4] = second compound 0.0316 µM, first compound 1 µM
[5] = second compound 0.0316 µM, first compound 3.16 µM
[6] = second compound 0.0316 µM, first compound 10 µM
[7] = second compound 0.1 µM, first compound 0.0316 µM
[8] = second compound 0.1 µM, first compound 0.1 µM
[9] = second compound 0.1 µM, first compound 0.316 µM
[10] = second compound 0.1 µM, first compound 1 µM
[11] = second compound 0.1 µM, first compound 3.16 µM
[12] = second compound 0.1 µM, first compound 10 µM
[13] = second compound 0.316 µM, first compound 0.0316 µM
[14] = second compound 0.316 µM, first compound 0.1 µM
[15] = second compound 0.316 µM, first compound 0.316 µM
[16] = second compound 0.316 µM, first compound 1 µM
[17] = second compound 0.316 µM, first compound 3.16 µM
[18] = second compound 0.316 µM, first compound 10 µM
[19] = second compound 1 µM, first compound 0.0316 µM
[20] = second compound 1 µM, first compound 0.1 µM
[21] = second compound 1 µM, first compound 0.316 µM
[22] = second compound 1 µM, first compound 1 µM
[23] = second compound 1 µM, first compound 3.16 µM
[24] = second compound 1 µM, first compound 10 µM
[25] = second compound 3.16 µM, first compound 0.0316 µM
[26] = second compound 3.16 µM, first compound 0.1 µM
[27] = second compound 3.16 µM, first compound 0.316 µM
[28] = second compound 3.16 µM, first compound 1 µM
[29] = second compound 3.16 µM, first compound 3.16 µM
[30] = second compound 3.16 µM, first compound 10 µM
[31] = second compound 10 µM, first compound 0.0316 µM
[32] = second compound 10 µM, first compound 0.1 µM
[33] = second compound 10 µM, first compound 0.316 µM
[34] = second compound 10 µM, first compound 1 µM
[35] = second compound 10 µM, first compound 3.16 µM
[36] = second compound 10 µM, first compound 10 µM
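Further: spheroids exposed to compounds for 7 days.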
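Wherever viability, T/C is given: 100% = DMSO vehicle control viability.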

CC1COCCN1c1cc(C2(S(C)(=N)=O)CC2)nc(-c2ccnc3[nH]ccc23)n1 (stereo unspecified) + CN(C)c1ccc(Nc2c3ccc(NC(=O)CCN4CCCC4)cc3nc3cc(NC(=O)CCN4CCCC4)ccc23)cc1
IC50 (second compound 0.0316 µM): 1370 nM
IC50 (second compound 0.1 µM): 1190 nM
IC50 (second compound 0.316 µM): 667 nM
IC50 (second compound 1 µM): < 31.6 nM
IC50 (second compound 3.16 µM): < 31.6 nM
IC50 (second compound 10 µM): < 31.6 nM
viability, T/C [1]: 97.3%
viability, T/C [2]: 109%
viability, T/C [3]: 99.8%
viability, T/C [4]: 62.6%
viability, T/C [5]: 15.8%
viability, T/C [6]: 6.43%
viability, T/C [7]: 98.9%
viability, T/C [8]: 99.1%
viability, T/C [9]: 81%
viability, T/C [10]: 59.1%
viability, T/C [11]: 16.8%
viability, T/C [12]: 6.7%
viability, T/C [13]: 77.7%
viability, T/C [14]: 88%
viability, T/C [15]: 63%
viability, T/C [16]: 41.6%
viability, T/C [17]: 16.7%
viability, T/C [18]: 4.97%
viability, T/C [19]: 26%
viability, T/C [20]: 13.1%
viability, T/C [21]: 20.5%
viability, T/C [22]: 11.9%
viability, T/C [23]: 7.12%
viability, T/C [24]: 2.2%
viability, T/C [25]: 1.87%
viability, T/C [26]: 1.5%
viability, T/C [27]: 1.71%
viability, T/C [28]: 0.99%
viability, T/C [29]: 0.76%
viability, T/C [30]: 0.35%
viability, T/C [31]: 0.19%
viability, T/C [32]: 0.55%
viability, T/C [33]: 0.48%
viability, T/C [34]: 0.52%
viability, T/C [35]: 0.54%
viability, T/C [36]: 0.25%

CC1COCCN1c1cc(-c2ccnn2C)c2ccnc(-c3ccn[nH]3)c2n1 (stereo unspecified) + Cc1[nH]c2ccc(F)cc2c1-c1nc2c3cccnc3c3ncccc3c2[nH]1
IC50 (second compound 0.0316 µM): 64.8 nM
IC50 (second compound 0.1 µM): 62.3 nM
IC50 (second compound 0.316 µM): 60.6 nM
IC50 (second compound 1 µM): 42.6 nM
IC50 (second compound 3.16 µM): < 31.6 nM
IC50 (second compound 10 µM): < 31.6 nM
viability, T/C [1]: 80%
viability, T/C [2]: 31.4%
viability, T/C [3]: 14.5%
viability, T/C [4]: 8.57%
viability, T/C [5]: 5.08%
viability, T/C [6]: 5.43%
viability, T/C [7]: 71.2%
viability, T/C [8]: 35.2%
viability, T/C [9]: 15.3%
viability, T/C [10]: 8.2%
viability, T/C [11]: 5.64%
viability, T/C [12]: 5.65%
viability, T/C [13]: 74%
viability, T/C [14]: 31%
viability, T/C [15]: 16.2%
viability, T/C [16]: 7.52%
viability, T/C [17]: 5.84%
viability, T/C [18]: 5.85%
viability, T/C [19]: 59%
viability, T/C [20]: 24.8%
viability, T/C [21]: 14.6%
viability, T/C [22]: 9.37%
viability, T/C [23]: 6.91%
viability, T/C [24]: 6.37%
viability, T/C [25]: 16.6%
viability, T/C [26]: 12.9%
viability, T/C [27]: 10.5%
viability, T/C [28]: 6.96%
viability, T/C [29]: 5.31%
viability, T/C [30]: 4.34%
viability, T/C [31]: 18%
viability, T/C [32]: 16.2%
viability, T/C [33]: 11.8%
viability, T/C [34]: 8.67%
viability, T/C [35]: 5.67%
viability, T/C [36]: 5.17%

Cn1ncnc1[C@H]1c2n[nH]c(=O)c3cc(F)cc(c23)N[C@@H]1c1ccc(F)cc1 + CN(C)c1ccc(Nc2c3ccc(NC(=O)CCN4CCCC4)cc3nc3cc(NC(=O)CCN4CCCC4)ccc23)cc1
IC50 (second compound 0.0316 µM): > 316 nM
IC50 (second compound 0.1 µM): > 316 nM
IC50 (second compound 0.316 µM): > 316 nM
IC50 (second compound 1 µM): < 0.999 nM
IC50 (second compound 3.16 µM): < 0.999 nM
IC50 (second compound 10 µM): < 0.999 nM
viability, T/C (second compound 0.0316 µM, first compound 0.000999 µM): 95.8%
viability, T/C (second compound 0.0316 µM, first compound 0.00316 µM): 98%
viability, T/C (second compound 0.0316 µM, first compound 0.00999 µM): 91.5%
viability, T/C [1]: 102%
viability, T/C (second compound 0.0316 µM, first compound 0.0999 µM): 88.9%
viability, T/C [3]: 96.1%
viability, T/C (second compound 0.1 µM, first compound 0.000999 µM): 105%
viability, T/C (second compound 0.1 µM, first compound 0.00316 µM): 97.8%
viability, T/C (second compound 0.1 µM, first compound 0.00999 µM): 98.8%
viability, T/C [7]: 100%
viability, T/C (second compound 0.1 µM, first compound 0.0999 µM): 72.9%
viability, T/C [9]: 87.6%
viability, T/C (second compound 0.316 µM, first compound 0.000999 µM): 87.7%
viability, T/C (second compound 0.316 µM, first compound 0.00316 µM): 84.6%
viability, T/C (second compound 0.316 µM, first compound 0.00999 µM): 89%
viability, T/C [13]: 68.2%
viability, T/C (second compound 0.316 µM, first compound 0.0999 µM): 79.3%
viability, T/C [15]: 77%
viability, T/C (second compound 1 µM, first compound 0.000999 µM): 35.8%
viability, T/C (second compound 1 µM, first compound 0.00316 µM): 24.4%
viability, T/C (second compound 1 µM, first compound 0.00999 µM): 34.5%
viability, T/C [19]: 16.9%
viability, T/C (second compound 1 µM, first compound 0.0999 µM): 22%
viability, T/C [21]: 19.1%
viability, T/C (second compound 3.16 µM, first compound 0.000999 µM): 2.45%
viability, T/C (second compound 3.16 µM, first compound 0.00316 µM): 2.11%
viability, T/C (second compound 3.16 µM, first compound 0.00999 µM): 1.92%
viability, T/C [25]: 1.34%
viability, T/C (second compound 3.16 µM, first compound 0.0999 µM): 1.64%
viability, T/C [27]: 2.41%
viability, T/C (second compound 10 µM, first compound 0.000999 µM): 0.29%
viability, T/C (second compound 10 µM, first compound 0.00316 µM): 0.56%
viability, T/C (second compound 10 µM, first compound 0.00999 µM): 0.56%
viability, T/C [31]: 0.4%
viability, T/C (second compound 10 µM, first compound 0.0999 µM): 0.71%
viability, T/C [33]: 1.05%
